Columns and labels:
3T3-L1 [1] = assay: Induction of adipogenesis in mouse 3T3-L1 cells assessed as increase in lipid droplets formation incubated with media replacement for every 3 days and measured at day 9 in presence of insulin by Oil Red O staining based analysis; assay type: functional, cell-based; details: dose 1-10 µM, time 9.0 day
3T3-L1 [2] = assay: Induction of adipogenesis in mouse 3T3-L1 cells assessed as fold increase in OD value at 10 uM incubated with media replacement for every 3 days and measured for day 9 in presence of insulin by Oil Red O staining based analysis; assay type: functional; details: time 9 day
3T3-L1 [3] = assay: Cytotoxicity against mouse 3T3-L1 cells assessed as reduction in cell viability at 10 uM incubated for 3 days by MTT assay; assay type: toxicity, cell-based; details: 3t3-l1, 72 h, time 3 day

| SMILES | Activity (3T3-L1 [1]) | fold change (FC) (3T3-L1 [2]) | Activity (3T3-L1 [3]) |
| --- | --- | --- | --- |
| CCCCCCCCC/C(C)=C/[C@@H](C/C=C/CCC(=O)N(C)[C@@H](COC)C(=O)N1CCC[C@H]1C(C)=O)OC | Dose-Dependent Effect | 2.3 | Non-Toxic |
| CCCCCC/C=C/C/C(C)=C/[C@@H](C/C=C/CCC(=O)N(C)[C@@H](COC)C(=O)N1CCC[C@H]1C(=O)CC)OC | Dose-Dependent Effect | 2.1 | Non-Toxic |

Source: ChEMBL document CHEMBL5360587, “Differentiation-Promoting Effects of Okeaniamides A and B from an Okeania sp. Marine Cyanobacterium on Preadipocytes” (J Nat Prod, 2023)
